A value given as a limit tells only on which side of the number the result lay.

The target of one experiment is T1, LRRK2 G2019S (Homo sapiens, UniProt Q5S007, G2019S).
T1 construct: purchased Life Technologies PV4881
Nature of the experiment: LRRK2 Kinase Activity Assay (LanthaScreen TR-FRET), G2019S. The settings on record: recombinant G2019S-LRRK2, 25 μM ATP, 400 nM LRRKtide, 60 min; class symbols. It counts as biochemical. The procedure: LRRK2 kinase activity was measured using a LanthaScreen™ Kinase Activity Assay from ThermoFisher Scientific. Recombinant wild type or G2019S-LRRK2 protein (Life Technologies, PR8604B or PV4881, respectively), was incubated with a fluorescein-labeled peptide substrate called LRRKtide that is based upon ezrin/radixin/moesin (ERM) (Life Technologies, PV4901) in the presence of ATP and serially diluted compound. […] Compound-dependent inhibition of the TR-FRET signal was used to generate a concentration-response curve for IC50 determination.
After 60 min incubation at room temperature, the reaction was stopped by addition of 10 μL of 2×stop solution containing a final concentration of 2 nM anti-pERM antibody and 10 mM EDTA.

The target of a further experiment is T2, LRRK2 WT (Homo sapiens, UniProt Q5S007).
T2 construct: purchased Life Technologies PR8604B
T2 sequence (Q5S007 whole entry): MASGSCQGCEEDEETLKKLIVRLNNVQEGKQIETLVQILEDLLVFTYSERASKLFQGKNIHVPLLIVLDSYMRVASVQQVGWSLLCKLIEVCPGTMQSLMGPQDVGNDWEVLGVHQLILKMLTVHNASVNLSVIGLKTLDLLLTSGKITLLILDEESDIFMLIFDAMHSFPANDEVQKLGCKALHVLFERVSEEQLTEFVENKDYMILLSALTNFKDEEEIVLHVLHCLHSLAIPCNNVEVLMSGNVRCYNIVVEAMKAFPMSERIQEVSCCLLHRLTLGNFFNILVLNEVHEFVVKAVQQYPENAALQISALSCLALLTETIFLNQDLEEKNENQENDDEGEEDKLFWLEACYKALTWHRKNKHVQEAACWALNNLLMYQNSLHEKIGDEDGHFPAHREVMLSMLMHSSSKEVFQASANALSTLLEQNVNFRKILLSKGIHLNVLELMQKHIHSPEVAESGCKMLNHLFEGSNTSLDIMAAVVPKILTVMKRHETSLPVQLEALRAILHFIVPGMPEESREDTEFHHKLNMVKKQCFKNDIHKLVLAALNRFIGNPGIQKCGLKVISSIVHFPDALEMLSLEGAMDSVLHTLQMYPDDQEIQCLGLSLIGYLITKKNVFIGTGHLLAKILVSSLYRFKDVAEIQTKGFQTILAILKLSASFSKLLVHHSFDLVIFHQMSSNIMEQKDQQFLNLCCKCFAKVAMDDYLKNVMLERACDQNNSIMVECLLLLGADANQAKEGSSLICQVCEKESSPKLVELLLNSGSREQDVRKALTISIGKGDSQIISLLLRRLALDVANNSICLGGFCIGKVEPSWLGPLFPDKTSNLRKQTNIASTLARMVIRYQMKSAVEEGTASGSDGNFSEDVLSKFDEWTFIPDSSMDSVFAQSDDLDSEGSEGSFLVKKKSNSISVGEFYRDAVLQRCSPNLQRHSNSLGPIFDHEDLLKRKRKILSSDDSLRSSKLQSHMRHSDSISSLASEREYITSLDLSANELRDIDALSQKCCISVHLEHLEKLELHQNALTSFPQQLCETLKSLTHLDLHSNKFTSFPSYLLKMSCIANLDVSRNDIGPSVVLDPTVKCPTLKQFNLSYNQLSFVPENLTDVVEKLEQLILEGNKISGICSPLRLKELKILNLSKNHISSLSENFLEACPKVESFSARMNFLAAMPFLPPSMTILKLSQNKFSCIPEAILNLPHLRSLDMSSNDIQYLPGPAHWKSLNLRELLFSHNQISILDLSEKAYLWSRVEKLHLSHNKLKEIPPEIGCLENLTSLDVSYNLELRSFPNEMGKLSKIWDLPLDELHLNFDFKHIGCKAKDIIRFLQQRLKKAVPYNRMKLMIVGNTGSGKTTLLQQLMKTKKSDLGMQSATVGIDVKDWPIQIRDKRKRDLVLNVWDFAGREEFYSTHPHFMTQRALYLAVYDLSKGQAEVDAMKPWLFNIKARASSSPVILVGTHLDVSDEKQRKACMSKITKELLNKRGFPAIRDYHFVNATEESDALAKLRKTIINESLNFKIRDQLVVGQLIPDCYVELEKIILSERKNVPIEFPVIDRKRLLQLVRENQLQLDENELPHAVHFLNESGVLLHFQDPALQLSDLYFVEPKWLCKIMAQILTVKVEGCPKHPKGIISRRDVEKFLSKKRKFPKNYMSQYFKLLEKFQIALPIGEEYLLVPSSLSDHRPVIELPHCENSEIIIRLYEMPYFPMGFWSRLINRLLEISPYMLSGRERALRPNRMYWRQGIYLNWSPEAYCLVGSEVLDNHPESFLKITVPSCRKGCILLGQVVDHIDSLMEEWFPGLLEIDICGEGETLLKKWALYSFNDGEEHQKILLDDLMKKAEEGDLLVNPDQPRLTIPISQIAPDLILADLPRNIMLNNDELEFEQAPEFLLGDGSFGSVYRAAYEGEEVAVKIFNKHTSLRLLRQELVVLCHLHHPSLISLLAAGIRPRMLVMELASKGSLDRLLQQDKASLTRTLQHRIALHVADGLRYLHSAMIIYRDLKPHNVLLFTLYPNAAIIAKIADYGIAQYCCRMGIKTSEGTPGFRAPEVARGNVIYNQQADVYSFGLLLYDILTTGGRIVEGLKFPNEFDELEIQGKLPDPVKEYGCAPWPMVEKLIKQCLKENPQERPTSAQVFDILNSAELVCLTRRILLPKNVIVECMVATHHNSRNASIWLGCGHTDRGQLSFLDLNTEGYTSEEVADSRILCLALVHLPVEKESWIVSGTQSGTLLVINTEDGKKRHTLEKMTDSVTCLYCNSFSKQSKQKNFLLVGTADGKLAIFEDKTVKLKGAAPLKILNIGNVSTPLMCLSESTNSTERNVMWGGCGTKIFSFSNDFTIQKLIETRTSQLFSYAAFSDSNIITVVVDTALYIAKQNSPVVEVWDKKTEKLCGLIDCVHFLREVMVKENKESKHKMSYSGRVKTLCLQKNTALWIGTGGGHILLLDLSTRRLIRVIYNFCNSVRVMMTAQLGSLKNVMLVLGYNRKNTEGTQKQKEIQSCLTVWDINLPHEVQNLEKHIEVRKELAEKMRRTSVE
The experiment in a line: LRRK2 Kinase Activity Assay (LanthaScreen TR-FRET), wild type. It counts as biochemical. Conditions: recombinant wild type LRRK2, 25 μM ATP, 400 nM LRRKtide, 60 min; class symbols. Put shortly:
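IC50 fitted to the compound-dependent loss of TR-FRET signal. Each kinase form, wild type or G2019S, phosphorylated the fluorescein-tagged ERM-derived LRRKtide in the presence of ATP and compound dilutions over 60 min at room temperature; quench contained 10 mM EDTA and 2 nM anti-pERM antibody (final).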
On the technique in general: Time-resolved FRET reads energy transfer from a long-lived donor to a nearby acceptor.

T1 sequence (Q5S007 whole entry G2019S): as the sequence (Q5S007 whole entry) above, with G2019S counted along it

For `C[C@H]1CCc2cc(C#N)ccc2[C@H]1Oc1ccc2[nH]nc(-c3cnco3)c2c1` (single isomer, unassigned) [175, enantiomer 1, cis-6-Methyl-5-[[3-(1,3-oxazol-5-yl)-1H-indazol-5-yl]oxy]-5,6,7,8-tetrahydronaphthalene-2-carbonitrile], the IC50 on LRRK2 G2019S was under 100 nM; at LRRK2 WT, 100 to 1000 nM. For `C[C@H]1CCc2cc(C#N)ccc2[C@H]1Oc1ccc2[nH]nc(-c3cnco3)c2c1` (single isomer, unassigned) [175, enantiomer 2, cis-6-Methyl-5-[[3-(1,3-oxazol-5-yl)-1H-indazol-5-yl]oxy]-5,6,7,8-tetrahydronaphthalene-2-carbonitrile], in that order: under 100 nM and 100 to 1000 nM.

Consider `C[C@@H]1CCc2cc(C#N)ccc2[C@H]1Oc1ccc2[nH]nc(-c3cnco3)c2c1` (single isomer, unassigned) [176, enantiomer 1, trans-6-Methyl-5-[[3-(1,3-oxazol-5-yl)-1H-indazol-5-yl]oxy]-5,6,7,8-tetrahydronaphthalene-2-carbonitrile], for which the values for the IC50 at LRRK2 G2019S and on LRRK2 WT were under 100 nM and 100 to 1000 nM, respectively.

As to `C[C@@H]1CCc2cc(C#N)ccc2[C@H]1Oc1ccc2[nH]nc(-c3cnco3)c2c1` (single isomer, unassigned) [176, enantiomer 2, trans-6-Methyl-5-[[3-(1,3-oxazol-5-yl)-1H-indazol-5-yl]oxy]-5,6,7,8-tetrahydronaphthalene-2-carbonitrile], the IC50 on LRRK2 G2019S and at LRRK2 WT was under 100 nM each time. `N#Cc1cc2c(nc1Cl)[C@@H](Oc1ccc3[nH]nc(-c4cnco4)c3c1)CCC2` (single isomer, unassigned) [177, enantiomer 1, 2-Chloro-8-((3-(oxazol-5-yl)-1H-indazol-5-yl)oxy)-5,6,7,8-tetrahydroquinoline-3-carbonitrile]: the IC50 at LRRK2 G2019S and on LRRK2 WT was under 100 nM each time. Turning to `N#Cc1cc2c(nc1Cl)[C@@H](Oc1ccc3[nH]nc(-c4cnoc4)c3c1)CCC2` (single isomer, unassigned) [178, enantiomer 1, 2-Chloro-8-[[3-(1,2-oxazol-4-yl)-1H-indazol-5-yl]oxy]-5,6,7,8-tetrahydroquinoline-3-carbonitrile], the IC50 on LRRK2 G2019S and at LRRK2 WT was under 100 nM in each case. With `COc1nc2c(cc1C#N)CCC[C@@H]2Oc1ccc2[nH]nc(-c3cnco3)c2c1` (single isomer, unassigned) [179, enantiomer 1, 2-Methoxy-8-[[3-(1,3-oxazol-5-yl)-1H-indazol-5-yl]oxy]-5,6,7,8-tetrahydroquinoline-3-carbonitrile], the half-maximal inhibitory concentration (IC50) on LRRK2 G2019S and at LRRK2 WT was under 100 nM throughout. Regarding `COc1nc2c(cc1C#N)CCC[C@@H]2Oc1ccc2[nH]nc(-c3cnco3)c2c1` (single isomer, unassigned) [179, enantiomer 2, 2-Methoxy-8-[[3-(1,3-oxazol-5-yl)-1H-indazol-5-yl]oxy]-5,6,7,8-tetrahydroquinoline-3-carbonitrile], the IC50 at LRRK2 G2019S and on LRRK2 WT was 100 to 1000 nM throughout. `N#Cc1cc2c(cc1F)[C@@H](Oc1ccc3[nH]nc(-c4cnco4)c3c1)CCC2` (single isomer, unassigned) [180, enantiomer 1, 3-Fluoro-5-[[3-(1,3-oxazol-5-yl)-1H-indazol-5-yl]oxy]-5,6,7,8-tetrahydronaphthalene-2-carbonitrile]: the half-inhibitory concentration (IC50) at LRRK2 G2019S and at LRRK2 WT was under 100 nM in each case. As for `N#Cc1cc2c(nc1Cl)[C@@H](Oc1ccc3[nH]nc(C4CC4)c3c1)CCC2` (single isomer, unassigned) [181, enantiomer 1, 2-Chloro-8-[(3-cyclopropyl-1H-indazol-5-yl)oxy]-5,6,7,8-tetrahydroquinoline-3-carbonitrile], the half-inhibitory concentration (IC50) at LRRK2 G2019S and at LRRK2 WT was under 100 nM each time.

As to `N#Cc1cc2c(nc1Cl)[C@@H](Oc1ccc3[nH]nc(C4CC4)c3c1)CCC2` (single isomer, unassigned) [181, enantiomer 2, 2-Chloro-8-[(3-cyclopropyl-1H-indazol-5-yl)oxy]-5,6,7,8-tetrahydroquinoline-3-carbonitrile], the results for the half-maximal inhibitory concentration (IC50) on LRRK2 G2019S and at LRRK2 WT were under 100 nM and 100 to 1000 nM, respectively. Taken in the same sequence, the figures for `N#Cc1cnc2c(n1)CC[C@@H]2Oc1ccc2[nH]nc(-c3cnco3)c2c1` (single isomer, unassigned) [182, enantiomer 1, 5-((3-(Oxazol-5-yl)-1H-indazol-5-yl)oxy)-6,7-dihydro-5H-cyclopenta[b]pyrazine-2-carbonitrile] were under 100 nM and under 100 nM.

Regarding `Cc1c(C#N)c(Cl)nc2c1CCC[C@@H]2Nc1ccc2[nH]nc(C3CC3)c2c1` (single isomer, unassigned) [183, enantiomer 1, 2-Chloro-8-[(3-cyclopropyl-1H-indazol-5-yl)amino]-4-methyl-5,6,7,8-tetrahydroquinoline-3-carbonitrile], the IC50 on LRRK2 G2019S was 100 to 1000 nM; on LRRK2 WT, 1000 to 10000 nM.

For the compound `Cc1c(C#N)c(Cl)nc2c1CCC[C@@H]2Nc1ccc2[nH]nc(C3CC3)c2c1` (single isomer, unassigned) [183, enantiomer 2, 2-Chloro-8-[(3-cyclopropyl-1H-indazol-5-yl)amino]-4-methyl-5,6,7,8-tetrahydroquinoline-3-carbonitrile], the half-maximal inhibitory concentration (IC50) at LRRK2 G2019S and at LRRK2 WT was under 100 nM throughout. `Cc1c(C#N)c(Cl)nc2c1CCC[C@@H]2Oc1ccc2[nH]nc(C3CC3)c2c1` (single isomer, unassigned) [184, enantiomer 1, 2-Chloro-8-[(3-cyclopropyl-1H-indazol-5-yl)oxy]-4-methyl-5,6,7,8-tetrahydroquinoline-3-carbonitrile]: the IC50 on LRRK2 G2019S and at LRRK2 WT was under 100 nM throughout. As for `Cc1c(C#N)c(Cl)nc2c1CCC[C@@H]2Oc1ccc2[nH]nc(C3CC3)c2c1` (single isomer, unassigned) [184, enantiomer 2, 2-Chloro-8-[(3-cyclopropyl-1H-indazol-5-yl)oxy]-4-methyl-5,6,7,8-tetrahydroquinoline-3-carbonitrile], the concentration for half-maximal inhibition (IC50) at LRRK2 G2019S is under 100 nM; on LRRK2 WT it was 1000 to 10000 nM. For `COc1n[nH]c2ccc(O[C@H]3CCc4cc(C#N)c(Cl)nc43)cc12` (single isomer, unassigned) [185, enantiomer 1, 2-Chloro-7-[(3-methoxy-1H-indazol-5-yl)oxy]-6,7-dihydro-5H-cyclopenta[b]pyridine-3-carbonitrile], in that order: under 100 nM and under 100 nM. In the case of `COc1n[nH]c2ccc(O[C@H]3CCc4cc(C#N)c(Cl)nc43)cc12` (single isomer, unassigned) [185, enantiomer 2, 2-Chloro-7-[(3-methoxy-1H-indazol-5-yl)oxy]-6,7-dihydro-5H-cyclopenta[b]pyridine-3-carbonitrile], the concentration for half-maximal inhibition (IC50) at LRRK2 G2019S fell in the range of 100 to 1000 nM; on LRRK2 WT, 1000 to 10000 nM. Taken in the same sequence, the figures for `COc1n[nH]c2ccc(O[C@H]3CCCc4cc(C#N)c(Cl)nc43)cc12` (single isomer, unassigned) [186, enantiomer 1, 2-Chloro-8-[(3-methoxy-1H-indazol-5-yl)oxy]-5,6,7,8-tetrahydroquinoline-3-carbonitrile] were under 100 nM and under 100 nM.

In the case of `COc1n[nH]c2ccc(O[C@H]3CCCc4cc(C#N)c(Cl)nc43)cc12` (single isomer, unassigned) [186, enantiomer 2, 2-Chloro-8-[(3-methoxy-1H-indazol-5-yl)oxy]-5,6,7,8-tetrahydroquinoline-3-carbonitrile], the figures for the IC50 at LRRK2 G2019S and at LRRK2 WT were 100 to 1000 nM and 1000 to 10000 nM, respectively. Taken in the same sequence, the figures for `COc1n[nH]c2ccc(O[C@H]3CCc4cc(C#N)c(Br)nc43)cc12` (single isomer, unassigned) [187, enantiomer 1, 2-Bromo-7-[(3-methoxy-1H-indazol-5-yl)oxy]-6,7-dihydro-5H-cyclopenta[b]pyridine-3-carbonitrile] were under 100 nM and under 100 nM. For `COc1n[nH]c2ccc(O[C@H]3CCc4cc(C#N)c(Br)nc43)cc12` (single isomer, unassigned) [187, enantiomer 2, 2-Bromo-7-[(3-methoxy-1H-indazol-5-yl)oxy]-6,7-dihydro-5H-cyclopenta[b]pyridine-3-carbonitrile], in that order: 100 to 1000 nM and 100 to 1000 nM. Taken in the same sequence, the figures for `COc1n[nH]c2ccc(O[C@H]3CCCc4cc(C#N)c(Br)nc43)cc12` (single isomer, unassigned) [188, enantiomer 1, 2-Bromo-8-[(3-methoxy-1H-indazol-5-yl)oxy]-5,6,7,8-tetrahydroquinoline-3-carbonitrile] were under 100 nM and under 100 nM. `N#Cc1cnc2c(c1)CCC[C@@H]2Oc1ccc2[nH]nc(C3CC3)c2c1` (single isomer, unassigned) [Example 136, enantiomer 2, 8-((3-Cyclopropyl-1H-indazol-5-yl)oxy)-5,6,7,8-tetrahydroquinoline-3-carbonitrile]: the IC50 on LRRK2 G2019S was in the range of 100 to 1000 nM. On the same count and under the same terms, in the case of `N#Cc1ccc2c(c1)CCCC2Nc1ccc2[nH]nc(C(F)(F)F)c2c1` (single isomer, unassigned) [Example 153, enantiomer 2, 5-((3-(Trifluoromethyl)-1H-indazol-5-yl)amino)-5,6,7,8-tetrahydronaphthalene-2-carbonitrile] it was 1000 to 10000 nM.

By IC50 is commonly meant the point on the concentration scale where inhibition reaches its midpoint.

(Values after US20230148214A1, “INDAZOLES AND AZAINDAZOLES AS LRRK2 INHIBITORS” (ESCAPE Bio, Inc., priority 2020, published 2023).)
